Measurements reported in patent publication US20130204033A1, “ANTIPROLIFERATIVE COMPOUNDS, CONJUGATES THEREOF, METHODS THEREFOR, AND USES THEREOF” (Medarex, Inc., priority 2009, published 2013).
Read-outs that look alike come from different tables or passages of the source.

Tests used:
Format in all cases: cell-based, human
Raji = assay: 3H thymidine proliferation assay, Raji
Experimental: (§1) This example generally describes the procedures used to assay the antiproliferative activity of compounds of this invention or their conjugates. Human tumor cell lines were obtained from the American Type Culture Collection (ATCC), P.O. Box 1549, Manassas, Va. 20108, USA, and cultured according to instruction from the ATCC. Cells were seeded at 1.0×10^3 or 1.0×10^4 cells/well in 96-well plates for 3 h for ATP assays or ^3H thymidine assays, respectively. 1:3 serial dilutions of free (unconjugated) compounds or their conjugates were added to the wells. Plates were allowed to incubate for 24 to 72 h. The ^3H thymidine plates were pulsed with 1.0 μCi of ^3H-thymidine per well for the last 24 hours of the total incubation period, harvested, and read on a Top Count Scintillation Counter (Packard Instruments, Meriden, Conn.). ATP levels in the ATP plates were measured using the […]-GLO® Luminescent Cell Viability kit following the manufacturer's manual and read on a GLOMAX® 20/20 luminometer (both from Promega, Madison, Wis., USA). The EC50 values—the concentration at which an agent inhibits or reduces cell proliferation by 50% —were determined using PRISM™ software, version 4.0 (GraphPad Software, La Jolla, Calif., USA).
(§2) Using the ^3H thymidine or the ATP luminescence assay, or both, the activities of compounds of this invention were assayed against the following cancer cell lines: HCT-15 (colorectal cancer, multi-drug resistant (MDR)); Hep3B (liver cancer); LNCaP (prostate cancer, androgen receptor positive (AR^+)); MDA-MB-231 (breast cancer, estrogen receptor, progesterone receptor, and Her2 negative (triple negative)); A2058 (melanoma); U-87 MG (glioblastoma); NCI-H460 (NSCLC); A549 (NSCLC); HPAC (pancreatic cancer, primary); PC3 (prostate cancer, AR); BT474 (breast cancer, Her2 highly positive (Her2hi)); SKOV3 (ovarian cancer, Her2hi); 786-O (renal cancer); UO-31 (renal cancer, MDR); NCI-H740 (SCLC); DMS53 (SCLC); SK-BR3 (breast cancer, Her2hi); ZR-75 (breast cancer, estrogen receptor positive); OVCAR3 (ovarian cancer); HL-60 (APL); OVCAR8/Adr (ovarian cancer, MDR); CEM-Cl (ALL); Nomo-1 (AML); RPMI-8226 (MM)); Raji (lymphoma); SW-480 (colorectal cancer, metastatic); SW-620 (colorectal cancer); and H226 (lung cancer). (Not all compounds were assayed against all cell lines.)
(§3) Table 2 provides the data for proliferation assays using the ^3H thymidine method, with an incubation period of 72 h.

A549 [1] = assay: 3H thymidine proliferation assay, A549
Experimental: as §1, §2, §3

LNCaP = assay: ATP luminescence proliferation assay, LNCaP
Experimental: as §1, §2
(§4) Table 3 provides the data for the ATP luminescence proliferation assays, with an incubation period of 48, 72, or 96 h, as noted.

SK-BR3 [2] = assay: ATP luminescence proliferation assay, SK-BR3
Experimental: as §1, §2, §4

DMS53 = assay: ATP luminescence proliferation assay, DMS53
Experimental: as §1, §2, §4

ZR-75 = assay: ATP luminescence proliferation assay, ZR-75
Experimental: as §1, §2, §4

RPMI-8226 = assay: ATP luminescence proliferation assay, RPMI-8226
Experimental: as §1, §2, §4

NCI-H460 = assay: 3H thymidine proliferation assay, NCI-H460
Experimental: as §1, §2, §3

NCI-H740 = assay: ATP luminescence proliferation assay, NCI-H740; conditions: Homo sapiens, H740, 72 h incubation
Experimental: as §1, with “Calif., USA). […]” for “Calif., USA).”
as §4

MDA-MB-231 = assay: ATP luminescence proliferation assay, MDA-MB-231
Experimental: as §1, §2, §4

PC3 = assay: 3H thymidine proliferation assay, PC3
Experimental: as §1, §2, §3

A2058 [3] = assay: ATP luminescence proliferation assay, A2058
Experimental: as §1, §2, §4

A549 [4] = assay: ATP luminescence proliferation assay, A549; conditions: Homo sapiens
Experimental: as §1, §2, §4

A2058 [5] = assay: 3H thymidine proliferation assay, A2058; conditions: 3H thymidine method, 72 h incubation
Experimental: as §1, §2, §3

SK-BR3 [6] = assay: 3H thymidine proliferation assay, SK-BR3; conditions: 3H thymidine method, 72 h incubation
Experimental: as §1, §2, §3

[7] = Homo sapiens, Raji, 3H thymidine method, 72 h incubation, read-out: EC50, Raji
[8] = Homo sapiens, A549, 3H thymidine method, 72 h incubation, read-out: EC50, A549
[9] = Homo sapiens, ATP luminescence, 72 h incubation, read-out: EC50 LNCaP (72 h)
[10] = Homo sapiens, SK-BR-3, ATP luminescence, SK-BR3, 72 h incubation, read-out: EC50 SK-BR3 (72 h)
[11] = Homo sapiens, DMS-53, ATP luminescence, DMS53, 72 h incubation, read-out: EC50 DMS53 (72 h)
[12] = Homo sapiens, ZR75, ATP luminescence, ZR-75, 72 h incubation, read-out: EC50 ZR-75 (72 h)
[13] = Homo sapiens, ATP luminescence, RPMI-8226, 72 h incubation, read-out: EC50 RPMI-8226 (72 h)
[14] = Homo sapiens, NCI-H460, 3H thymidine method, 72 h incubation, read-out: EC50, NCI-H460
[15] = Homo sapiens, ATP luminescence, MDA-MB-231, 72 h incubation, read-out: EC50 MDA-MB-231 (72 h)
[16] = Homo sapiens, PC-3, 3H thymidine method, 72 h incubation, read-out: EC50, PC3
[17] = Homo sapiens, ATP luminescence, A2058, 72 h incubation, read-out: EC50 A2058 (72 h)
[18] = ATP luminescence, A549, 48 h incubation, read-out: EC50 A549 (48 h)
[19] = Homo sapiens, Raji, read-out: EC50, Raji, 3H thymidine method, 72 h incubation
[20] = Homo sapiens, A549, read-out: EC50, A549, 3H thymidine method, 72 h incubation
[21] = Homo sapiens, 72 h, read-out: EC50 LNCaP (72 h), ATP luminescence, LNCaP, 72 h incubation
[22] = Homo sapiens, SK-BR-3, 48 h, read-out: EC50 SK-BR3 (48 h), ATP luminescence, SK-BR3, 48 h incubation
[23] = Homo sapiens, ZR75, 48 h, read-out: EC50 ZR-75 (48 h), ATP luminescence, ZR-75, 48 h incubation
[24] = Homo sapiens, NCI-H460, read-out: EC50, NCI-H460, 3H thymidine method, 72 h incubation
[25] = Homo sapiens, PC-3, read-out: EC50, PC3, 3H thymidine method, 72 h incubation
[26] = Homo sapiens, DMS-53, 48 h, read-out: EC50 DMS53 (48 h), ATP luminescence, DMS53, 48 h incubation
[27] = Homo sapiens, RPMI-8226, 72 h, read-out: EC50 RPMI-8226 (72 h), ATP luminescence, RPMI-8226, 72 h incubation
[28] = Homo sapiens, MDA-MB-231, 72 h, read-out: EC50 MDA-MB-231 (72 h), ATP luminescence, MDA-MB-231, 72 h incubation
[29] = Homo sapiens, A2058, 72 h, read-out: EC50 A2058 (72 h), ATP luminescence, A2058, 72 h incubation
[30] = A549, 48 h, read-out: EC50 A549 (48 h), ATP luminescence, A549, 48 h incubation

SMILES | EC50 (Raji; [7]) [nM] | EC50 (A549 [1]; [8]) [nM] | EC50 (LNCaP; [9]) [nM] | EC50 (SK-BR3 [2]; [10]) [nM] | EC50 (DMS53; [11]) [nM] | EC50 (ZR-75; [12]) [nM] | EC50 (RPMI-8226; [13]) [nM] | EC50 (NCI-H460; [14]) [nM] | EC50 (MDA-MB-231; [15]) [nM] | EC50 (PC3; [16]) [nM] | EC50 (A2058 [3]; [17]) [nM] | EC50 (Raji; [19]) [nM] | EC50 (A2058 [5]; Homo sapiens, A2058) [nM] | EC50 (A549 [1]; [20]) [nM] | EC50 (LNCaP; [21]) [nM] | EC50 (SK-BR3 [2]; [22]) [nM] | EC50 (ZR-75; [23]) [nM] | EC50 (NCI-H460; [24]) [nM] | EC50 (SK-BR3 [6]; Homo sapiens, SK-BR-3) [nM] | EC50 (PC3; [25]) [nM] | further results
Nc1ccc(C(=O)Nc2ccc3[nH]c(C(=O)N4C[C@@H](CCl)c5c4cc(O)c4ccccc54)cc3c2)cc1 [CBI, reference compound] | 0.013 | 0.072 | 3.3 | 3.1 | 3.8 | 2.2 | 4.1 | 0.042 | 3.1 | 0.049 | 0.2 | – | – | – | – | – | – | – | – | – | EC50 (NCI-H740): 2.2 nM; EC50 (A549 [4]; [18]): 3 nM
CC[C@H](C)[C@H](NC(=O)[C@H]1CCCCN1C)C(=O)N(C)[C@H](C[C@@H](OC)c1nc(C(=O)N[C@H](CCC(=O)OC)Cc2ccccc2)cs1)C(C)C [Compound 26] | – | – | – | – | – | – | – | – | – | – | – | 7 | 25 | 18 | 412 | 253 | 208 | 18 | 32 | 16 | EC50 (DMS53; Homo sapiens, DMS-53, 72 h, read-out: EC50 DMS53 (72 h), ATP luminescence, DMS53, 72 h incubation): 193 nM; EC50 (RPMI-8226; Homo sapiens, RPMI-8226, 48 h, read-out: EC50 RPMI-8226 (48 h), ATP luminescence, RPMI-8226, 48 h incubation): 45 nM; EC50 (MDA-MB-231; Homo sapiens, MDA-MB-231, 48 h, read-out: EC50 MDA-MB-231 (48 h), ATP luminescence, MDA-MB-231, 48 h incubation): 120 nM; EC50 (A2058 [3]; Homo sapiens, A2058, 48 h, read-out: EC50 A2058 (48 h), ATP luminescence, A2058, 48 h incubation): 93 nM
CC[C@H](C)[C@H](NC(=O)[C@H]1CCCCN1C)C(=O)N(COC)[C@H](C[C@@H](OC)c1nc(C(=O)N[C@@H](Cc2ccccc2)C(=O)OC)cs1)C(C)C [Compound 29c] | – | – | – | – | – | – | – | – | – | – | – | – | – | – | – | – | – | – | – | – | EC50 (Raji; 3H thymidine method, 72 h incubation, read-out: EC50, Raji): 8.5 nM; EC50 (A2058 [5]): 5.6 nM; EC50 (A549 [1]; 3H thymidine method, 72 h incubation, read-out: EC50, A549): 6.5 nM; EC50 (LNCaP; ATP luminescence, 72 h incubation, read-out: EC50 LNCaP (72 h)): 255 nM; EC50 (SK-BR3 [2]; ATP luminescence, SK-BR3, 48 h incubation, read-out: EC50 SK-BR3 (48 h)): 278 nM; EC50 (DMS53; ATP luminescence, DMS53, 72 h incubation, read-out: EC50 DMS53 (72 h)): 17 nM; EC50 (ZR-75; ATP luminescence, ZR-75, 48 h incubation, read-out: EC50 ZR-75 (48 h)): 136 nM; EC50 (RPMI-8226; ATP luminescence, RPMI-8226, 48 h incubation, read-out: EC50 RPMI-8226 (48 h)): 70 nM; EC50 (NCI-H460; 3H thymidine method, 72 h incubation, read-out: EC50, NCI-H460): 15 nM; EC50 (SK-BR3 [6]): 72 nM; EC50 (MDA-MB-231; ATP luminescence, MDA-MB-231, 48 h incubation, read-out: EC50 MDA-MB-231 (48 h)): 52 nM; EC50 (PC3; 3H thymidine method, 72 h incubation, read-out: EC50, PC3): 11 nM; EC50 (A2058 [3]; ATP luminescence, A2058, 48 h incubation, read-out: EC50 A2058 (48 h)): 32 nM
CC[C@H](C)[C@H](NC(=O)[C@H]1CCCCN1C)C(=O)N(C)[C@H](C[C@@H](OC(C)=O)c1nc(C(=O)N[C@@H](Cc2ccc(N)cc2)CC(C)C(=O)O)cs1)C(C)C (stereo partly shown) [Compound 36] | – | – | – | – | – | – | – | – | – | – | – | 15 | 60 | 44 | > 300 | > 300 | > 300 | 52 | > 100 | 66 | EC50 (DMS53; [26]): ~300 nM; EC50 (RPMI-8226; [27]): 62 nM; EC50 (MDA-MB-231; [28]): 9.6 nM; EC50 (A2058 [3]; [29]): 43 nM; EC50 (A549 [4]; [30]): 1.9 nM
CC[C@H](C)[C@H](NC(=O)[C@H]1CCCCN1C)C(=O)N(COC(=O)CC(C)C)[C@H](C[C@@H](OC(C)=O)c1nc(C(=O)N[C@@H](Cc2ccc(N)cc2)CC(C)C(=O)O)cs1)C(C)C (stereo partly shown) [Compound 54] | – | – | – | – | – | – | – | – | – | – | – | 0.2 | 0.64 | 0.24 | 11 | 6.2 | 9.6 | 0.31 | 1.1 | 0.82 | EC50 (DMS53; [26]): 7.9 nM; EC50 (RPMI-8226; [27]): 1.6 nM; EC50 (MDA-MB-231; [28]): 5.6 nM; EC50 (A2058 [3]; [29]): 1.4 nM; EC50 (A549 [4]; [30]): 3 nM
COc1cccc2c1C(=O)c1c(O)c3c(c(O)c1C2=O)C[C@@](O)(C(=O)CO)C[C@@H]3O[C@H]1C[C@H](N)[C@H](O)[C@H](C)O1 [Dox, doxorubicin, reference compound] | 61 | 128 | 592 | 441 | 755 | 236 | 345 | 101 | 518 | 276 | 101 | – | – | – | – | – | – | – | – | – | EC50 (A549 [4]; [18]): 149 nM
